We go through 9 compounds from patent US3981997A, “Analgesic compositions comprising 1H- or respectively 2H-indazolone-3 (β-morpholino-alkoxy) compounds” (Temmler Werke-Vereinigte Chemische Fabriken, priority 1970, dated 1976).

In series [1] the test system is mouse. The experiment in a line: animal or person. The conditions noted are these: for ED50: Mus musculus; for Hot plate: relative therapeutic index (Th.I.) / Writhing Test: relative therapeutic index (Th.I.) / Writhing Test: mean effective dosage (ED50) / Hot plate: mean effective dosage (ED50): mouse; for Writhing Test: mean effective dosage (ED50) / Hot plate: mean effective dosage (ED50): relative to effective substance; for Writhing Test: mean effective dosage (ED50): 30 min; for Hot plate: mean effective dosage (ED50): 60 min. On the procedure:
The mice were kept without food during a period of 18 hours prior to the commencement of the tests. The test substances were administered orally in a methyl-cellulose-mucic (slime) by means of a probe. The observation period for the toxicity tests was 7 days. […] The pre-medication periods were 60 minutes in the first test arrangements. […] The percentage of the non-reacting animals was used to compute the ED50. […] Since the reaction times of the control group animals were log-normally distributed an analgetic effect was assumed in the treated animals if the logarithm of the reaction time of an animal was above the mean value range plus twice the standard deviation of the control group animals.
(An intraperitoneal irritant provokes the stretching counted in writhing tests.)

Series [2] in a line: Overall analgetic effect and compatability [sic]. The settings on record: in vivo.
Series [3] can be described thus: Acute oral toxicity in the mouse (LD50, 7-day observation). The series is classed as in vivo. The settings on record: in vivo, read-out: Mean lethal dosage (LD50).
Series [4] has as its system rat. The experiment in a line: animal or person. The class given is in vivo. As for the experimental part: According to Table II and with reference to the method described by A. HERZ (Naunyn-Schmiedeberg's Arch. Pharmakol., 242, 414, 1962) with rats by electrical stimulation of the root of the tail by means of continuously increasing the current a threshold of pain was determined which threshold was characterized in that the animals commenced to squeak in synchronism with the stimulation. When maintaining the selected test conditions these threshold values indicated as percent variations against the initial values prior to the treatment remained practically constant over a period of several hours in a test with control animals. Since these values are furthermore also normally distributed it is possible to quantitatively determine analgetic effects by determining the number of animals whose threshold values exceed during a test run the range defined by the mean value plus twice the standard deviation.
To determine the mean effective dosage ED50) determinations of the threshold of pain were made in 30 minute intervals with groups of 12 female rats each, each rat having a body weight from 160 to 360 grams, and these determinations were made prior to and after the treatment with at least 3 doses of the test substances which were administered orally in a 2 % methyl-cellulose-mucic by means of a probe. […] In this manner, not only the intensity but also the duration of the effect were taken into consideration when determining the ED50 since the analgesia must be sustained for at least 90 minutes.

The subject of series [5] is mouse. The experiment in a line: Acute oral toxicity in the mouse (LD50, 7-day observation). The series is classed as in vivo. The conditions noted are these: Table I, relative to effective substance, 10080 min.
Series [6] can be described thus: Acute oral toxicity in the rat (LD50). The conditions noted are these: in vivo.
Series [7] deals with rat. The class given is in vivo.
Setting [8] is: po, 0.5 h, read-out: Writhing Test: mean effective dosage (ED50).
[9] abbreviates: po, 1 h, read-out: Hot plate: mean effective dosage (ED50).
Setting [10] is: Table I, oral, LD10/ED90, relative to aminophenazone = 1,00.
The mark [11] stands for this setting: Table I, relative to effective substance.
Setting [12] is: po, Table II, rat, p.o., relative to effective substance, read-out: Mean effective dosage (ED50), analgetic effect on rats.
[13] abbreviates: Table IV, oral, LD10/ED90, relative to aminophenazone = 1.00.
[14] abbreviates: Table IV, rat, oral, read-out: Mean effective dosage (ED50), electrical stimulation of root of the tail (HERZ).

Read-outs that look alike come from different tables or passages of the source.

One may read the ED50 as the midpoint of the dose-response relation. One may read the LD50 as the dose expected to kill half of the subjects tested. For `Br.c1ccc2c(OCCN3CCOCC3)n[nH]c2c1` [3-(β-morpholino-ethoxy)-1H-indazole-hydrobromide], the figures for the ED50 in the series with mouse [1] (setting [8]), in the series on mouse [1] (setting [9]) and in the series on rat [4] (setting [12]) were 46 mg/kg, 142 mg/kg and 34 mg/kg, respectively. Also, the “Hot plate: relative therapeutic index (Th.I.)” value with mouse [1] (setting [10]) is on record as 3,53. The “Writhing Test: relative therapeutic index (Th.I.)” value in the series with mouse [1] (setting [10]) is recorded as 1,30. In addition, the “analgetic activity (in words)” value in series [2] is given as “Analgetically particularly active”. Also, the LD50 at 168 h in series [3] (setting [11]) came out at 615 mg/kg. Further, in the series with rat [4] (Table II, rat, p.o.), the “Relative effectivity, relative to aminophenazone = 1.00” value (from here on “Relative effectivity”) worked out at 6.84.
Regarding `COc1ccc2c3c1O[C@H]1[C@@H](O)C=C[C@H]4[C@@H](C2)N(C)CC[C@@]341` [codeine phosphate], the 50% effective dose (ED50) with mouse [1] (setting [8]) is 14 mg/kg; in the series on mouse [1] (setting [9]) it was 115 mg/kg; in the series on rat [4] (Rattus norvegicus, po, read-out: Mean effective dosage (ED50), analgetic effect on rats), 22 mg/kg. For the same compound, the “Hot plate: relative therapeutic index (Th.I.)” value in the series on mouse [1] (setting [10]) is 1,49. In the series with mouse [1] (setting [10]), the “Writhing Test: relative therapeutic index (Th.I.)” value is listed as 1,92. For the same compound, the LD50 at 168 h in series [3] (setting [11]) was 265 mg/kg. Moreover, the “Relative effectivity” value in the series with rat [4] (Table II, rat, p.o.) is listed as 10.50.
Turning to `c1ccc2c(OCCCN3CCOCC3)n[nH]c2c1` [3-(γ-morpholino-propoxy)-1H-indazole], in series [2], the “analgetic activity (in words)” value is reported as “Analgetically particularly active”.
Regarding `CCOc1ccc(NC(C)=O)cc1` [phenacetine], the 50% effective dose (ED50) came out at 107 mg/kg with mouse [1] (setting [8]), 530 mg/kg in the series on mouse [1] (setting [9]) and 123 mg/kg with rat [4] (setting [12]). For the same compound, the “Writhing Test: mean effective dosage (ED50)” value (shortened to “Writhing Test … (ED50)”) in the series with mouse [1] (Table I, oral) turned out to be 107 mg/kg body weight. For the same compound, the “Hot plate: mean effective dosage (ED50)” value in the series with mouse [1] (Table I, oral) stood at 530 mg/kg body weight. The “Hot plate: relative therapeutic index (Th.I.)” value in the series with mouse [1] (setting [10]) is 1,71; with mouse [1] (in vivo, po) it was 1.93. The “Writhing Test: relative therapeutic index (Th.I.)” value in the series on mouse [1] (setting [10]) is 0,66; in the series on mouse [1] (in vivo, po) it was 0.74. Also, the LD50 at 168 h in series [3] (Table III) was 1250 mg/kg. The “Mean lethal dosage (LD50)” value in the series with mouse [5] is 1250 mg/kg body weight. For the same compound, the “Relative effectivity” value in the series with rat [4] (Table II, rat, p.o.) was 1.86.
With `c1ccc2c(OCCN3CCOCC3)n[nH]c2c1` [3-(β-morpholino-ethoxy)-1H-indazole], the “analgetic activity (in words)” value in series [2] is reported as “Analgetically particularly active”.
On the same count and under the same terms, the same measure for `Br.C1CCc2c(n[nH]c2OCCN2CCOCC2)C1` [3-(β-morpholino-ethoxy)-4,5,6,7-tetrahydro-2H-indazole-hydrobromide]: “Analgetically particularly active”.
In the case of `CC(=O)Oc1ccccc1C(=O)O` [acetylsalicylate], in series [6], the LD50 was found to be 1400 mg/kg. Also, the values for the ED50 in the series on mouse [1] (setting [8]), with mouse [1] (setting [9]) and in the series with rat [4] (setting [14]) were 107 mg/kg, 500 mg/kg and 340 mg/kg, respectively. In the series with mouse [1] (Table I, oral), the “Writhing Test … (ED50)” value came out at 107 mg/kg body weight. For the same compound, the “Hot plate: mean effective dosage (ED50)” value in the series on mouse [1] (Table I, oral) turned out to be 500 mg/kg body weight. The “Hot plate: relative therapeutic index (Th.I.)” value in the series on mouse [1] (setting [10]) was 1,67; in the series on mouse [1] (in vivo, po), 1.88. In addition, the “Writhing Test: relative therapeutic index (Th.I.)” value in the series with mouse [1] (setting [10]) is 0,80; in the series with mouse [1] (in vivo, po), 0.91. The same compound yielded a relative therapeutic index in the series on rat [7] (setting [13]) of 0.28. For the same compound, the LD50 at 168 h in series [3] (Table III) was 835 mg/kg. Besides, the “Mean lethal dosage (LD50)” value in the series on mouse [5] stood at 835 mg/kg body weight. Also, the “Relative effectivity” value in the series on rat [4] (Table II, rat, p.o.) was found to be 0.67.
In turn, `C1CCc2c(n[nH]c2OCCN2CCOCC2)C1` [3-(β-morpholino-ethoxy)-4,5,6,7-tetrahydro-2H-indazole] returned an LD50 in series [6] of 1600 mg/kg. Moreover, the ED50 turned out to be 94 mg/kg in the series with mouse [1] (setting [8]), 540 mg/kg with mouse [1] (setting [9]) and 143 mg/kg in the series on rat [4] (setting [14]). Moreover, in the series with mouse [1] (in vivo, po), the “Hot plate: relative therapeutic index (Th.I.)” value came to 2.67. In addition, the “Writhing Test: relative therapeutic index (Th.I.)” value with mouse [1] (in vivo, po) amounted to 2.07. Also, the relative therapeutic index in the series with rat [7] (setting [13]) was determined as 1.62. In addition, the LD50 at 168 h in series [3] (Table III) is 1720 mg/kg.
In turn, `Cc1c(N(C)C)c(=O)n(-c2ccccc2)n1C` [aminophenazone] had an LD50 in series [6] of 1350 mg/kg. Moreover, the ED50 in the series with mouse [1] (setting [8]) amounted to 50 mg/kg; in the series with mouse [1] (setting [9]) it was 283 mg/kg; in the series with rat [4] (setting [14]), 229 mg/kg. Also, in the series on mouse [1] (Table I, oral), the “Writhing Test … (ED50)” value is reported as 50 mg/kg body weight. Moreover, in the series with mouse [1] (Table I, oral), the “Hot plate: mean effective dosage (ED50)” value was found to be 283 mg/kg body weight. The “Hot plate: relative therapeutic index (Th.I.)” value in the series on mouse [1] (setting [10]) is 1,00; in the series on mouse [1] (in vivo, po), 1.00. The “Writhing Test: relative therapeutic index (Th.I.)” value in the series with mouse [1] (setting [10]) is 1,00; with mouse [1] (in vivo, po), 1.00. The compound also displayed a relative therapeutic index in the series on rat [7] (in vivo, po) of 1.00. Also, the LD50 at 168 h in series [3] (Table III) amounted to 550 mg/kg. Also, the “Mean lethal dosage (LD50)” value in the series with mouse [5] came out at 550 mg/kg body weight. Also, in the series on rat [4] (Table II, rat, p.o.), the “Relative effectivity” value is on record as 1.00.
